pIC50: −log10 of the molar value.
Key:
[1] = target: T1, GST-tagged MDMX (Homo sapiens, UniProt O15151); experiment: HTRF binding assay of GST-tagged MDMX to p53 peptide
T1 sequence (O15151 1-490): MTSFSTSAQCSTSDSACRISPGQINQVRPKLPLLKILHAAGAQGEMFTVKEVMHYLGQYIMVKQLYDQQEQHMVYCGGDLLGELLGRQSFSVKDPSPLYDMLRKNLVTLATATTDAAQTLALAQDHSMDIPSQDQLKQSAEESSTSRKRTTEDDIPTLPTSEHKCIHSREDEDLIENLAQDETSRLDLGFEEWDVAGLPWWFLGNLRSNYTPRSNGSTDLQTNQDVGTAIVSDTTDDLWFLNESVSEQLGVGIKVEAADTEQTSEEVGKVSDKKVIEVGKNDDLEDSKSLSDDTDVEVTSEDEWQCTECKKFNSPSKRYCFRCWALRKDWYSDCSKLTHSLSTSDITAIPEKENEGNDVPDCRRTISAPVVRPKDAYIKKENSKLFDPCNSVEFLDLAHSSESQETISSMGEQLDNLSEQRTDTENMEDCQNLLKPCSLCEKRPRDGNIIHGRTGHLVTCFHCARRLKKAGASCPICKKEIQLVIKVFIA

[2] = target: recombinant GST-tagged MDM2 (Homo sapiens, UniProt Q00987); experiment: HTRF assay of interaction between p53 peptide and GST-tagged MDM2; conditions: inhibition of GST-MDM2 (160 ng/ml) binding to biotinylated p53-peptide
recombinant GST-tagged MDM2, sequence (Q00987 whole entry): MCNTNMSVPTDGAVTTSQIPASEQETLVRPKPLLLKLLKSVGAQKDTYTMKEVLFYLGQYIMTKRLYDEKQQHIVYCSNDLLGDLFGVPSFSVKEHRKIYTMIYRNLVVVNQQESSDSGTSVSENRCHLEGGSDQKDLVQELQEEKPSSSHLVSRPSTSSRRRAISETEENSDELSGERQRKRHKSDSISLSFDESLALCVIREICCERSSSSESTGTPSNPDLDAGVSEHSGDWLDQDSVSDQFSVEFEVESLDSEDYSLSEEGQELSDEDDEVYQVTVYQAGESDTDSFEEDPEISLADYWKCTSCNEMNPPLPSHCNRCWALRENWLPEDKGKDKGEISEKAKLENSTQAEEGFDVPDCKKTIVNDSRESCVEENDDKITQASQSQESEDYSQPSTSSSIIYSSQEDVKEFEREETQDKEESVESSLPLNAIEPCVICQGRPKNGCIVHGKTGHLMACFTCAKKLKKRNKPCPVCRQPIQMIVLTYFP
Method: The ability of a test compound to inhibit the interaction between p53 and MDM2 protein was measured by an HTRF (homogeneous time-resolved fluorescence) assay in which recombinant GST-tagged MDM2 binds to a peptide that resembles the MDM2-interacting region of p53 Aca-[…]-OH hereinafter p53-peptide). Binding of GST-MDM2 protein and p53-peptide (biotinylated on its N-terminal end) is registered by the FRET (fluorescence resonance energy transfer) between Europium (Eu)-labeled anti-GST antibody and streptavidin-conjugated Allophycocyanin (APC).
The test was performed in black flat-bottom 384-well plates (Costar) in a total volume of 40 uL containing: 90 nM biotinylated peptide, 160 ng/ml GST-MDM2, 20 nM streptavidin-APC (PerkinElmerWallac), 2 nM Eu-labeled anti-GST-antibody (PerkinElmerWallac), 0.02% bovine serum albumin (BSA), 1 mM dithiothreitol (DTT) and 20 mM […] (TBS) buffer as follows: add 10 uL of GST-MDM2 (640 ng/ml working solution) in reaction buffer to each well. Add 10 uL diluted compounds (1:5 dilution in reaction buffer) to each well, mix by shaking. Add 20 uL biotinylated p53 peptide (180 nM working solution) in reaction buffer to each well and mix on shaker. Incubate at 37° C. for 1 h. Add […] streptavidin-APC and Eu-anti-GST antibody mixture (6 nM Eu-anti-GST and 60 nM streptavidin-APC working solution) in TBS buffer with 0.02% BSA, shake at room temperature for 30 minutes and read using a TRF-capable plate reader at 665 and 615 nm (Victor 5, Perkin ElmerWallac). If not specified, the reagents were purchased from Sigma Chemical Co.

Compound | pIC50 [1] | pIC50 [2]
CCOc1cc(Cl)c(S(=O)(=O)NC(C)(C)C)cc1C1=N[C@@](C)(c2ccc(Cl)cc2)[C@@](C)(c2ccc(Cl)cc2)N1C(=O)N1CCN(CC(=O)NCC2CCCO2)CC1 (mixture of isomers) [Example 48, 2-{4-[(4S,5R)-2-(5-tert-Butylsulfamoyl-4-chloro-2-ethoxy-phenyl)-4,5-bis-(4-chloro-phenyl)-4,5-dimethyl-4,5-dihydro-imidazole-1-carbonyl]-piperazin-1-yl}-N-(tetrahydro-furan-2-ylmethyl)-acetamide] | 5.87 | 7.93
CCOc1cc(Cl)c(S(C)(=O)=O)cc1C1=N[C@@](C)(c2ccc(Cl)cc2)[C@@](C)(c2ccc(Cl)cc2)N1C(=O)N1CCC(CC(N)=O)CC1 (racemic) [Example 5, 2-{1-[(4S,5R)-2-(4-Chloro-2-ethoxy-5-methanesulfonyl-phenyl)-4,5-bis-(4-chloro-phenyl)-4,5-dimethyl-4,5-dihydro-imidazole-1-carbonyl]-piperidin-4-yl}-acetamide] | 5.44 | 7.82
CCOc1cc(Cl)c(S(C)(=O)=O)cc1C1=N[C@@](C)(c2ccc(Cl)cc2)[C@@](C)(c2ccc(Cl)cc2)N1C(=O)N1CCNC(=O)C1 [Example 2, 4-[(4S,5R)-2-(4-Chloro-2-ethoxy-5-methanesulfonyl-phenyl)-4,5-bis-(4-chloro-phenyl)-4,5-dimethyl-4,5-dihydro-imidazole-1-carbonyl]-piperazin-2-one] | 5.97 | 8.24
CCOc1cc(Cl)c(S(C)(=O)=O)cc1C1=N[C@@](C)(c2ccc(Cl)cc2)[C@@](C)(c2ccc(Cl)cc2)N1C(=O)N1CCN(C[C@H](O)CO)CC1 [Example 3, [(4S,5R)-2-(4-Chloro-2-ethoxy-5-methanesulfonyl-phenyl)-4,5-bis-(4-chloro-phenyl)-4,5-dimethyl-4,5-dihydro-imidazol-1-yl]-[4-((S)-2,3-dihydroxy-propyl)-piperazin-1-yl]-methanone] | 5.94 | 8.27
CCOc1cc(Cl)c(S(C)(=O)=O)cc1C1=N[C@@](C)(c2ccc(Cl)cc2)[C@@](C)(c2ccc(Cl)cc2)N1C(=O)N1CCN(CC[C@H](O)CO)C(=O)C1 [Example 4, 4-[(4S,5R)-2-(4-Chloro-2-ethoxy-5-methanesulfonyl-phenyl)-4,5-bis-(4-chloro-phenyl)-4,5-dimethyl-4,5-dihydro-imidazole-1-carbonyl]-1-((S)-3,4-dihydroxy-butyl)-piperazin-2-one] | 5.76 | 8.27
CCOc1cc(Cl)c(S(C)(=O)=O)cc1C1=N[C@@](C)(c2ccc(Cl)cc2)[C@@](C)(c2ccc(Cl)cc2)N1C(=O)N1CCN(CC(N)=O)CC1 [Example 6, 2-{4-[(4S,5R)-2-(4-Chloro-2-ethoxy-5-methanesulfonyl-phenyl)-4,5-bis-(4-chloro-phenyl)-4,5-dimethyl-4,5-dihydro-imidazole-1-carbonyl]-piperazin-1-yl}-acetamide] | 5.92 | 8.18
CCOc1cc(Cl)c(S(C)(=O)=O)cc1C1=N[C@@](C)(c2ccc(Cl)cc2)[C@@](C)(c2ccc(Cl)cc2)N1C(=O)N1CCN(S(C)(=O)=O)CC1 [Example 7, [(4S,5R)-2-(4-Chloro-2-ethoxy-5-methanesulfonyl-phenyl)-4,5-bis-(4-chloro-phenyl)-4,5-dimethyl-4,5-dihydro-imidazol-1-yl]-(4-methanesulfonyl-piperazin-1-yl)-methanone] | 5.60 | 8.20
CCOc1cc(Cl)c(S(C)(=O)=O)cc1C1=N[C@@](C)(c2ccc(Cl)cc2)[C@@](C)(c2ccc(Cl)cc2)N1C(=O)N1CCC(N)CC1 [Example 8, (4-Amino-piperidin-1-yl)-[(4S,5R)-2-(4-chloro-2-ethoxy-5-methanesulfonyl-phenyl)-4,5-bis-(4-chloro-phenyl)-4,5-dimethyl-4,5-dihydro-imidazol-1-yl]-methanone] | 5.97 | 8.36
CCOc1cc(Cl)c(S(C)(=O)=O)cc1C1=N[C@@](C)(c2ccc(Cl)cc2)[C@@](C)(c2ccc(Cl)cc2)N1C(=O)N1CCC(CS(C)(=O)=O)CC1 [Example 9, [(4S,5R)-2-(4-Chloro-2-ethoxy-5-methanesulfonyl-phenyl)-4,5-bis-(4-chloro-phenyl)-4,5-dimethyl-4,5-dihydro-imidazol-1-yl]-(4-methanesulfonylmethyl-piperidin-1-yl)-methanone] | 5.77 | 8.24
CCNC(=O)NC1CCN(C(=O)N2C(c3cc(S(C)(=O)=O)c(Cl)cc3OCC)=N[C@@](C)(c3ccc(Cl)cc3)[C@@]2(C)c2ccc(Cl)cc2)CC1 [Example 10, 1-{1-[(4S,5R)-2-(4-Chloro-2-ethoxy-5-methanesulfonyl-phenyl)-4,5-bis-(4-chloro-phenyl)-4,5-dimethyl-4,5-dihydro-imidazole-1-carbonyl]-piperidin-4-yl}-3-ethyl-urea] | 6.01 | 8.38
CCOc1cc(Cl)c(S(C)(=O)=O)cc1C1=N[C@@](C)(c2ccc(Cl)cc2)[C@@](C)(c2ccc(Cl)cc2)N1C(=O)N1CCC(NC(=O)NC(C)C)CC1 [Example 11, 1-{1-[(4S,5R)-2-(4-Chloro-2-ethoxy-5-methanesulfonyl-phenyl)-4,5-bis-(4-chloro-phenyl)-4,5-dimethyl-4,5-dihydro-imidazole-1-carbonyl]-piperidin-4-yl}-3-isopropyl-urea] | 5.90 | 8.35
CCOc1cc(Cl)c(S(=O)(=O)CC)cc1C1=N[C@@](C)(c2ccc(Cl)cc2)[C@@](C)(c2ccc(Cl)cc2)N1C(=O)N1CCN(CCCS(C)(=O)=O)CC1 [Example 12, [(4S,5R)-2-(4-Chloro-5-ethanesulfonyl-2-ethoxy-phenyl)-4,5-bis-(4-chloro-phenyl)-4,5-dimethyl-4,5-dihydro-imidazol-1-yl]-[4-(3-methanesulfonyl-propyl)-piperazin-1-yl]-methanone] | 6.00 | 8.26
CCOc1cc(Cl)c(S(C)(=O)=O)cc1C1=N[C@@](C)(c2ccc(Cl)cc2)[C@@](C)(c2ccc(Cl)cc2)N1C(=O)N1CCC(CCS(C)(=O)=O)CC1 [Example 13, [(4S,5R)-2-(4-Chloro-2-ethoxy-5-methanesulfonyl-phenyl)-4,5-bis-(4-chloro-phenyl)-4,5-dimethyl-4,5-dihydro-imidazol-1-yl]-[4-(2-methanesulfonyl-ethyl)-piperidin-1-yl]-methanone] | 5.86 | 8.21
CCOc1cc(Cl)c(S(C)(=O)=O)cc1C1=N[C@@](C)(c2ccc(Cl)cc2)[C@@](C)(c2ccc(Cl)cc2)N1C(=O)N1CCN(CCCS(=O)(=O)CC)CC1 [Example 14, [(4S,5R)-2-(4-Chloro-2-ethoxy-5-methanesulfonyl-phenyl)-4,5-bis-(4-chloro-phenyl)-4,5-dimethyl-4,5-dihydro-imidazol-1-yl]-[4-(3-ethanesulfonyl-propyl)-piperazin-1-yl]-methanone] | 5.84 | 8.33
CCOc1cc(Cl)c(S(C)(=O)=O)cc1C1=N[C@@](C)(c2ccc(Cl)cc2)[C@@](C)(c2ccc(Cl)cc2)N1C(=O)N1CCN(CC(=O)N(CCOC)CCOC)CC1 [Example 15, 2-{4-[(4S,5R)-2-(4-Chloro-2-ethoxy-5-methanesulfonyl-phenyl)-4,5-bis-(4-chloro-phenyl)-4,5-dimethyl-4,5-dihydro-imidazole-1-carbonyl]-piperazin-1-yl}-N,N-bis-(2-methoxy-ethyl)-acetamide] | 5.94 | 8.26
